Data: US20250213571A1, “TYK2 INHIBITORS AND USES THEREOF” (Alumis Inc., priority 2022, published 2025)
Where a name gives a salt, the structure may show the parent alone. Read-outs that look alike come from different tables or passages of the source.

Legend:
[1] = 14-membered ring
[2] = target: TYK2 JH1 (Homo sapiens (Human), UniProt P29597); assay: TYK2 JH1 binding (Kd, Table 2); conditions: JH1 domain
[3] = target: human TYK2 (JH2domain-pseudokinase) (Homo sapiens (Human), UniProt P29597); assay: TYK2 JH2 domain binding assay (KINOMEscan)
Experimental: Binding constants for the compounds described herein against the JH2 domain were determined by the following protocol for a KINOMEscan® assay (DiscoveRx). A fusion protein of a partial length construct of human TYK2 (JH2domain-pseudokinase) (amino acids G556 to D888 based on reference sequence NP_003322.3) and the DNA binding domain of NFkB was expressed in transiently transfected HEK293 cells. From these HEK 293 cells, extracts were prepared in M-PER extraction buffer (Pierce) in the presence of Protease Inhibitor Cocktail Complete (Roche) and Phosphatase Inhibitor Cocktail Set II (Merck) per manufacturers' instructions. The TYK2 (JH2domain-pseudokinase) fusion protein was labeled with a chimeric double-stranded DNA tag containing the NFkB binding site fused to an amplicon for qPCR readout, which was added directly to the expression extract (the final concentration of DNA-tag in the binding reaction is 0.1 nM).
Streptavidin-coated magnetic beads (Dynal M280) were treated with a biotinylated small molecule ligand for 30 minutes at room temperature to generate affinity resins the binding assays. The liganded beads were blocked with excess biotin and washed with blocking buffer (SeaBlock (Pierce), 1% BSA, 0.05% Tween 20, 1 mM DTT) to remove unbound ligand and to reduce nonspecific binding.
The binding reaction was assembled by combining 16 μl of DNA-tagged kinase extract, 3.8 μl liganded affinity beads, and 0.18 μl test compound (PBS/0.05% Tween 20/10 mM DTT/0.1% BSA/2 μg/ml sonicated salmon sperm DNA)]. Extracts were used directly in binding assays without any enzyme purification steps at a ≥10,000-fold overall stock dilution (final DNA-tagged enzyme concentration <0.1 nM). Extracts were loaded with DNA-tag and diluted into the binding reaction in a two-step process. First extracts were diluted 1:100 in 1×binding buffer (PBS/0.05% Tween 20/10 mM DTT/0.1% BSA/2 […] sonicated salmon sperm DNA) containing 10 nM DNA-tag. This dilution was allowed to equilibrate at room temperature for 15 minutes and then subsequently diluted 1:100 in 1× binding buffer. Test compounds were prepared as 111× stocks in 100% DMSO. Kds were determined using an 11-point 3-fold compound dilution series with three DMSO control points. All compounds for Kd measurements were distributed by acoustic transfer (non-contact dispensing) in 100% DMSO. The compounds were then diluted directly into the assays such that the final concentration of DMSO was 0.9%. All reactions were performed in polypropylene 384-well plates. Each was a final volume of 0.02 mL. Assays were incubated with shaking for 1 hour at room temperature. Then the beads were pelleted and washed with wash buffer (1×PBS, 0.05% Tween 20) to remove displaced kinase and test compound. The washed based were resuspended in elution buffer (1 λPBS, 0.05% Tween […] non-biotinylated affinity ligand) and incubated at room temperature with shaking for 30 minutes. The kinase concentration in the eluates was measured by qPCR. qPCR reactions were assembled by adding 2.5 μL of kinase eluate to 7.5 μL of qPCR master mix containing […] amplicon primers and 0.15 μM amplicon probe. The qPCR protocol consisted of a 10 minute hot start at 95° C., followed by 35 cycles of 95° C. for 15 seconds, 60° C. for 1 minute.
Test compounds were prepared as 111× stocks in 100% DMSO. Kds were determined using an 11-point 3-fold compound dilution series with three DMSO control points. All compounds for Kd measurements were distributed by acoustic transfer (non-contact dispensing) in 100% DMSO. The compounds were then diluted directly into the assays such that the final concentration of DMSO was 0.9%. The Kds were determined using a compound top concentration of 30,000 nM. Kd measurements were performed in duplicate.
Binding constants (Kds) were calculated with a standard dose-response curve using the Hill equation: […]
The Hill Slope was set to −1. […]

[4] = target: JAK1 JH2 (Homo sapiens (Human), UniProt P23458); assay: JAK1 JH2 binding (Kd, Table 2); conditions: JH2 domain
JAK1 JH2, sequence (P23458 583-855): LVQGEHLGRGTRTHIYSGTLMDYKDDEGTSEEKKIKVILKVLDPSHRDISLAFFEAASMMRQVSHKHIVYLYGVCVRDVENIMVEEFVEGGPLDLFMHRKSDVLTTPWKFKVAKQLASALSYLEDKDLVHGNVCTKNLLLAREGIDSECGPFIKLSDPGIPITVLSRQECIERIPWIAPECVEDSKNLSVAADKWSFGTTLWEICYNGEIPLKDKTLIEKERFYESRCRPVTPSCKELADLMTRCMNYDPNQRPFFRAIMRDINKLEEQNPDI

human TYK2 (JH2domain-pseudokinase), sequence (P29597 556-888): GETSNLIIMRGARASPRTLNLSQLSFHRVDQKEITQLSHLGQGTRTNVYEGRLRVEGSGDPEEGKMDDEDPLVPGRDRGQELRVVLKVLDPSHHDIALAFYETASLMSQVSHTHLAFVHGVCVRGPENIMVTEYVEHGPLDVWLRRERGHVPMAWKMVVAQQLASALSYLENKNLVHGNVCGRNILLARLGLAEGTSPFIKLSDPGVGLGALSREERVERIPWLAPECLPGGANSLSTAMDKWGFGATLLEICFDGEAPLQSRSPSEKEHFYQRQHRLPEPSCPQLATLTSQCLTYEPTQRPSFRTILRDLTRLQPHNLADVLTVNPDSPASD
TYK2 JH1, sequence (P29597 897-1176): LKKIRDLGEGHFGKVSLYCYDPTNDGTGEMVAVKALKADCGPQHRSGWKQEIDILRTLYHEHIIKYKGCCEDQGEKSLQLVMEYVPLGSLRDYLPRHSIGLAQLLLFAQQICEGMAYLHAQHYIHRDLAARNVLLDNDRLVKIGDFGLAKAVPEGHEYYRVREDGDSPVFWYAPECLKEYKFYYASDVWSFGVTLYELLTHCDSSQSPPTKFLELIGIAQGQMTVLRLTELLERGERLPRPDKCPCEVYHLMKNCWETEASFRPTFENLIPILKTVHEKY

tert-butyl N-methy 1-N-[(12R)-12-methyl-10-oxo-14-oxa-2,4,5,7,11,20-hexaazapentacyclo [13.6.2.2^{3,6}0.^{5,9}0.^{19,23}]pentacosa 1(21),3,6,8,15,17,19,22,24-nonaen-24-yl]carbamate
ring closure, isolated yield ([1]; cn_pd bond, Pd2(dba)3/Xantphos, 1,4-dioxane, 34.0 mM, 80.0 °C): 66%

CNc1cc2nc3c(cnn13)C(=O)N[C@H](C)[C@H](C)OCc1cc(c3c(c1)nnn3C)N2 [Compound 93]
Kd [2]: ≥ 30 µM
Kd [3]: < 10 nM
Kd [4]: 1000 to 10000 nM

C[C@@H]1COCc2cc(c3nnn(C)c3c2)Nc2cc(N(C)C(=O)OC(C)(C)C)n3ncc(c3n2)C(=O)O1
ring closure, isolated yield ([1]; from C[C@@H](O)COCc1cc(Nc2cc(N(C)C(=O)OC(C)(C)C)n3ncc(C(=O)O)c3n2)c2nnn(C)c2c1, ester bond, DIAD/PPh3, DCM, 20.0 mM, 16.0 h): 52%

CNc1cc2nc3c(cnn13)C(=O)NC(C(F)(F)F)COCc1cc(c3c(c1)nnn3C)N2 (stereo not shown) [Compound 95]
Kd [2]: ≥ 30 µM
Kd [3]: < 10 nM
Kd [4]: ≥ 30000 nM

C[C@@H]1COCc2cc(cn3ccnc23)Nc2cc(N(C)C(=O)OC(C)(C)C)c3ncc(n3n2)C(=O)N1
ring closure, isolated yield ([1]; from C[C@H](COCc1cc(N)cn2ccnc12)NC(=O)c1cnc2c(N(C)C(=O)OC(C)(C)C)cc(Cl)nn12, cn_pd bond, Pd2(dba)3/Xantphos/Cs2CO3, 1,4-dioxane, 80.0 °C): 34%

tert-butyl N-methyl-N-[(12R)-12-methyl-10-oxo-2,4,5,7,11,14,16,18-octaazapentacyclo[13.6.2.2^(3,6.0^(5,9.0^(19,23]pentacosa-1(21),3,6,8,15,17,19,22,24-nonaen-24-yl]carbamate
ring closure, isolated yield ([1]; cn_pd bond, Pd2(dba)3/Xantphos/Cs2CO3, 1,4-dioxane, 100.0 mM, 85.0 °C): 18%

CNc1cc2nc3c(cnn13)C(=O)N[C@H](C)COCc1cc(c3c(c1)ncn3C)N2 [Compound 9, (R,1^3E,1^4E)-3^1,7-Dimethyl-1^7-(methylamino)-3^1H-5-oxa-2,8-diaza-1(5,3)-pyrazolo[1,5-a]pyrimidina-3(7,5)-benzo[d]imidazolacyclononaphan-9-one]
Kd [2]: ≥ 30 µM
Kd [3]: < 10 nM
Kd [4]: 1000 to 10000 nM

CNc1cc2nc3c(cnn13)C(=O)N[C@H](C(C)(C)O)COCc1cc(c3nnn(C)c3c1)N2 [Compound 16]
Kd [2]: ≥ 30 µM
Kd [3]: < 10 nM
Kd [4]: ≥ 30000 nM

CNc1cc2nn3c(cnc13)C(=O)N[C@H](C)COc1cnnc3ccc(cc13)N2 [Compound 80]
Kd [2]: ≥ 30 µM
Kd [3]: ≥ 30000 nM
Kd [4]: ≥ 30000 nM

(R,1^3E,1^4E)-3′,7-Dimethyl-1^7-(methylamino)-3^1H-5-oxa-2,8-diaza-1(5,3)-pyrazolo[1,5-a]pyrimidina-3(7,5)-indazolacyclononaphan-9-one [Compound 13]
Kd [2]: 1 to 10 µM
Kd [3]: < 10 nM
Kd [4]: 10000 to 30000 nM

CNc1cc2nc3c(cnn13)C(=O)NC(C(F)(F)F)COCc1cc(c3nnn(C)c3c1)N2 (stereo not shown) [Compound 92]
Kd [2]: ≥ 30 µM
Kd [3]: < 10 nM
Kd [4]: 10000 to 30000 nM

CNc1cc2nc3c(cnn13)C(=O)N[C@H](C)[C@H](C)OCc1cc(c3nnn(C)c3c1)N2 [Compound 38]
Kd [2]: ≥ 30 µM
Kd [3]: < 10 nM
Kd [4]: 1000 to 10000 nM

CNc1cc2nn3c(cnc13)C(=O)N[C@H](C)COCc1cc(cc3cn[nH]c13)N2 [Compound 98]
Kd [2]: 0.01 to 1 µM
Kd [3]: < 10 nM
Kd [4]: 10 to 1000 nM

CNc1cc2nn3c(cnc13)C(=O)N[C@H](C)C(C)OCc1cc(c3nnn(C)c3c1)N2 (stereo partly shown) [Compound 90]
Kd [2]: ≥ 30 µM
Kd [3]: < 10 nM
Kd [4]: 10 to 1000 nM

CNc1cc2nn3c(cnc13)C(=O)N[C@H](C)COCc1cc(cc3nc[nH]c13)N2 [Compound 97, (14R)-14-methyl-21-(methylamino)-12-oxa-2,6,8,15,19,23,24-heptaazapentacyclo[15.5.2.1^(3,10.0^(5,9.0^(20,24]pentacosa-1(23),3(25),4,6,9,17,19,21-octaen-16-one hydrochloride]
Kd [2]: 1 to 10 µM
Kd [3]: < 10 nM
Kd [4]: 10 to 1000 nM

CNc1cc2nc3c(cnn13)C(=O)O[C@H](C)COCc1cc(c3nnn(C)c3c1)N2 [Compound 4, (R,1^3E,1^4E)-3^1,7-dimethyl-1^7-(methylamino)-3^1H-5,8-dioxa-2-aza-1(5,3),3(4,6)-dipyrazolo [1,5-a]pyrimidinacyclononaphan-9-one]
Kd [2]: ≥ 30 µM
Kd [3]: < 10 nM
Kd [4]: 1000 to 10000 nM

CNc1cc2nc3c(cnn13)C(=O)N[C@H](CO)COCc1cc(c3nnn(C)c3c1)N2 [Compound 91]
Kd [2]: 0.01 to 1 µM
Kd [3]: < 10 nM
Kd [4]: 1000 to 10000 nM

CNc1cc2nc3c(cnn13)C(=O)N[C@H](C)COCc1cc(c3ncn(C)c3c1)N2 [Compound 11, (R,1^3E,1^4E)-3′,7-Dimethyl-17-(methylamino)-3^1H-5-oxa-2,8-diaza-1(5,3)-pyrazolo[1,5-a]pyrimidina-3(4,6)-benzo[d]imidazolacyclononaphan-9-one]
Kd [2]: 10 to 30 µM
Kd [3]: < 10 nM
Kd [4]: 1000 to 10000 nM

CNc1cc2nn3c(cnc13)C(=O)N[C@H](C)COc1ccnc3ccc(cc13)N2 [Compound 60]
Kd [2]: 10 to 30 µM
Kd [3]: < 10 nM
Kd [4]: 10 to 1000 nM

CNc1cc2nn3c(cnc13)C(=O)N[C@H](C)COCc1cc(c3cnn(C)c3c1)N2 [Compound 12, (7R,E)-3^1,7-Dimethyl-1^8-(methylamino)-3^1H-5-oxa-2,8-diaza-1(6,3)-imidazo[1,2-b]pyridazina-3(4,6)-indazolacyclononaphan-9-one]
Kd [2]: 1 to 10 µM
Kd [3]: < 10 nM
Kd [4]: 10 to 1000 nM

CNc1cc2nc3c(cnn13)C(=O)N[C@H](C)COCc1cc(c3cnn(C)c3c1)N2 [Compound 52]
Kd [2]: 10 to 30 µM
Kd [3]: < 10 nM
Kd [4]: 1000 to 10000 nM

CNc1cc2nn3c(cnc13)C(=O)N[C@H](C)COCc1cc(c3nn(C)cc3c1)N2 [Compound 36]
Kd [2]: 1 to 10 µM
Kd [3]: < 10 nM
Kd [4]: 10 to 1000 nM

CNc1cc2nc3c(cnn13)C(=O)N[C@H](C)[C@@H](C)OCc1cc(c3c(c1)nnn3C)N2 [Compound 94]
Kd [2]: ≥ 30 µM
Kd [3]: < 10 nM
Kd [4]: 10000 to 30000 nM

CNc1cc2nc3c(cnn13)C(=O)N[C@H](C)COCc1cc(c3cn(C)nc3c1)N2 [Compound 53]
Kd [2]: 10 to 30 µM
Kd [3]: < 10 nM
Kd [4]: 10 to 1000 nM

CNc1cc2nn3c(cnc13)C(=O)N[C@H](C)COCc1cc(c3c(cnn3C)c1)N2 [Compound 14, (7R,E)-3′,7-Dimethyl-1^8-(methylamino)-3^1H-5-oxa-2,8-diaza-1(6,3)-imidazo[1,2-b]pyridazina-3(7,5)-indazolacyclononaphan-9-one]
Kd [2]: 10 to 30 µM
Kd [3]: < 10 nM
Kd [4]: 10000 to 30000 nM

CNc1cc2nn3c(cnc13)C(=O)N[C@H](C)COCc1cc(c3ncn(C)c3c1)N2 [Compound 10, (7R,E)-3′,7-Dimethyl-1^8-(methylamino)-3^1H-5-oxa-2,8-diaza-1(6,3)-imidazo[1,2-b]pyrida-zina-3(4,6)-benzo[d]imidazolacyclononaphan-9-one]
Kd [2]: 1 to 10 µM
Kd [3]: < 10 nM
Kd [4]: 1000 to 10000 nM

CNc1cc2nc3c(cnn13)C(=O)N[C@H](CO)[C@@H](C)OCc1cc(c3nnn(C)c3c1)N2 [Compound 15]
Kd [2]: ≥ 30 µM
Kd [3]: < 10 nM
Kd [4]: 1000 to 10000 nM
